PMC7327383, “The affinity and selectivity of α‐adrenoceptor antagonists, antidepressants, and antipsychotics for the human α1A, α1B, and α1D‐adrenoceptors” (Pharmacology Research & Perspectives, 2020)
Where two headings read alike, the source gives them in different places. Values belong to the compound of their own block, whether it stands above or below them.

Legend:
[1] = target: T1, full-length human α1D-adrenoceptor (Homo sapiens, UniProt P25100); test: [3H]prazosin whole-cell competition binding, CHO-α1D cells
T1 sequence (P25100 1-572): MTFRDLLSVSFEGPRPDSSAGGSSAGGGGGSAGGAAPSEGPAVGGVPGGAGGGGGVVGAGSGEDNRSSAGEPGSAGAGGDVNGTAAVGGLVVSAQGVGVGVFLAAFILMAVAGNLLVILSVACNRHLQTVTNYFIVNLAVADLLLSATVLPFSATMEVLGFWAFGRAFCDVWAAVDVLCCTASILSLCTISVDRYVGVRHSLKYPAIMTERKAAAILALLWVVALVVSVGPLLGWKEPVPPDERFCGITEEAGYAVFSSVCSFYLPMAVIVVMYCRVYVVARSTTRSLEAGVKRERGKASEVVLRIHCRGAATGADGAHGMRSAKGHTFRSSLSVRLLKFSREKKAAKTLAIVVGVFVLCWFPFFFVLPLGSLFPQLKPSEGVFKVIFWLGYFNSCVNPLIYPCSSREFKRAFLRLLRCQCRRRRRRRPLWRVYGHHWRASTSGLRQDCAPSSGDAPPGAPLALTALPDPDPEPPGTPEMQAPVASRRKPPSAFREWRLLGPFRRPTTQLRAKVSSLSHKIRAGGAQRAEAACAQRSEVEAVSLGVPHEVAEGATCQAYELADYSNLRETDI

[2] = target: T2, human α1A-adrenoceptor (Homo sapiens, UniProt P35348); test: [3H]prazosin whole-cell competition binding, CHO-α1A cells
T2 construct: CHO cells stably expressing either the full‐length human α1A, α1B, or α1D‐adrenoceptor
T2 sequence (P35348 1-466): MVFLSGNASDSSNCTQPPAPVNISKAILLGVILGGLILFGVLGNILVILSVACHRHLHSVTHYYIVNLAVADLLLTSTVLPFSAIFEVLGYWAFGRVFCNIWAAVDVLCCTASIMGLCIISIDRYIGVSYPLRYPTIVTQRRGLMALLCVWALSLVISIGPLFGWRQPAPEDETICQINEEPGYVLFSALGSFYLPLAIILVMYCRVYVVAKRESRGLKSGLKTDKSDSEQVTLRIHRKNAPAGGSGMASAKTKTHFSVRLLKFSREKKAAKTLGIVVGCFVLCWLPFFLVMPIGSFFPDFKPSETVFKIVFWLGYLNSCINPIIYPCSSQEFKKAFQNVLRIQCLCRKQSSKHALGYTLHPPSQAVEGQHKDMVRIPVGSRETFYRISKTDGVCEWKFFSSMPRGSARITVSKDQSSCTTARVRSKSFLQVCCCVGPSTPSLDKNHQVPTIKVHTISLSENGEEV

[3] = target: T3, human α1B-adrenoceptor (Homo sapiens, UniProt P35368); test: [3H]prazosin whole-cell competition binding, CHO-α1B cells
T3 construct: CHO cells stably expressing either the full‐length human α1A, α1B, or α1D‐adrenoceptor
T3 sequence (P35368 1-520): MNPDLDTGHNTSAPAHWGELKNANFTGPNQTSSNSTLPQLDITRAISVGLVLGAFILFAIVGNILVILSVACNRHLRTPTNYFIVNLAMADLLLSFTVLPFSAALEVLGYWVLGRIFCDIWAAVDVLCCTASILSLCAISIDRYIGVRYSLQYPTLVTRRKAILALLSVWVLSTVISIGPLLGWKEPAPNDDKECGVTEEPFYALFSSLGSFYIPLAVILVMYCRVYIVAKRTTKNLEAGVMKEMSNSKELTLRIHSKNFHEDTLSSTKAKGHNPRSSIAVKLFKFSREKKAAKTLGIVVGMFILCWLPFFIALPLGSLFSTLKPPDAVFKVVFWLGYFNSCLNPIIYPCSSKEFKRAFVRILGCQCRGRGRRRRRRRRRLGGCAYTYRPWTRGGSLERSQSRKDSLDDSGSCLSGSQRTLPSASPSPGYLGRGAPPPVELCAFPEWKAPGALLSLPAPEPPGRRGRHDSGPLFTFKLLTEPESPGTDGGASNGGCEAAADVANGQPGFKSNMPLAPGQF

[4] = percentage of inhibition through first component, control
[5] = ratio of KD values, higher α1D affinity (site 1 KD)
[6] = two-component inhibition curve, proportion of site 1
[7] = ratio, 1 = no selectivity for a subtype over another
[8] = single-component inhibition curve, given as log KD (negative), mean ± SE mean, read-out: Log KD α1B (converted)
[9] = log KD from 3H-prazosin whole cell binding, CHO cells, mean ± s.e.mean
[10] = single-component inhibition curve, given as log KD (negative), mean ± SE mean
[11] = Log KD α1D, single-component inhibition curve, given as log KD (negative), mean ± SE mean

% site 1 α1D [1, 6]: 64.0 ± 2.1% | Log KD α1A [2, 9]: -9.06 ± 0.07 | Log KD α1B [3, 9]: -7.37 ± 0.04
SMILES: COc1ccccc1N1CCN(CC2CN3C(=O)N(C)c4ccccc4C3=N2)CC1 (stereo not drawn) [2-MPMDQ]

% site 1 α1D ([1]; share of site 1 in the two-component inhibition curve): 57.6 ± 2.8% | % site 1 α1D [1, 6]: 57.6 ± 2.8% | Log KD α1A [2, 9]: -8.19 ± 0.09 | Log KD α1B [3, 9]: -6.95 ± 0.05
SMILES: O=C1Nc2ccccc2C2=NC(CN3CCN(c4ccccc4)CC3)CN12 (stereo not drawn) [2-PMDQ]

% site 1 α1D [1, 4]: 64.0 ± 2.1% site1 | Log KD α1A [2, 10]: −9.06 ± 0.07 | Log KD α1B [3, 10]: −7.37 ± 0.04
SMILES: COc1ccccc1N1CCN(CC2CN3C(=O)N(C)c4ccccc4C3=N2)CC1 (stereo not drawn) [2‐MPMDQ]

Log KD α1A [2, 9]: -9.57 ± 0.06 | Log KD α1B [3, 9]: -8.59 ± 0.03
SMILES: COc1ccccc1N1CCN(CCn2c(=O)[nH]c3c([nH]c4ccccc43)c2=O)CC1 [3-MPPI]

Log KD α1A [2, 10]: −9.57 ± 0.06 | Log KD α1B [3, 10]: −8.59 ± 0.03
SMILES: COc1ccccc1N1CCN(CCn2c(=O)[nH]c3c([nH]c4ccccc43)c2=O)CC1 [3‐MPPI]

Kd [1, 11]: 0.0135 µM
SMILES: COc1ccccc1OCCNCC(O)COc1cccc2[nH]c3ccccc3c12 (stereo not drawn) [Carvedilol]

% site 1 α1D [1, 4]: 56.0 ± 5.0% site 1 | Kd [3, 8]: 0.0145 µM
SMILES: CN(C)CCCN1c2ccccc2Sc2ccc(Cl)cc21 [Chlorpromazine]

Kd [1, 11]: 12.3 µM | IC50 ([3]; read-out: Log IC50 α1B (converted)): > 100 µM
SMILES: CN(C)CCCC1(c2ccc(F)cc2)OCc2cc(C#N)ccc21 (stereo not drawn) [Citalopram]

Kd [1, 11]: 0.537 µM | Kd [3, 8]: 0.661 µM
SMILES: CN(C)CCC=C1c2ccccc2COc2ccccc21 [Doxepin]

Kd [1, 11]: 12.6 µM
SMILES: CNCCC(Oc1ccc(C(F)(F)F)cc1)c1ccccc1 (stereo not drawn) [Fluoxetine]

Continued, compound first:

SMILES: COc1cc2nc(N3CCN(C(=O)c4ccco4)[C@H]4CCCC[C@H]43)nc(N)c2cc1OC (racemic) [Cyclazosin]
Kd ([1]; Log KD α1D site 1, high-affinity component of two-component curve, control, used for selectivity): 0.000135 µM | Kd ([1]; affinity, subtype not given, by Table 1 reached at α1D site 1): < 0.00025 µM | Log KD α1D site 2 ([1]; low-affinity component of two-component curve, control): −7.44 ± 0.10 | % site 1 α1D [1, 4]: 56.8 ± 3.4% site 1 | Selectivity ratio α1A vs α1D [1, 5]: 9.5 fold | Selectivity ratio α1B vs α1D [1, 5]: 15 fold | % site 1 α1D [1, 6]: -9.87 ± 0.06 -7.44 ± 0.10 56.8 ± 3.4% site 1 | Selectivity ratio α1A vs α1B ([2]; ratio of KD values, printed under α1A = higher α1A affinity, 1.0 under vs = none): 1.6 fold | selectivity α1A vs 1D [2, 7]: 9.5 | Kd ([2]; single-component inhibition curve, given as log KD (negative), mean ± SE mean, read-out: Log KD α1A (converted)): 0.00129 µM | selectivity α1B vs α1D [3, 7]: 15 | Kd [3, 8]: 0.00209 µM

SMILES: COc1cc2nc(N(C)CCCNC(=O)C3CCCO3)nc(N)c2cc1OC (stereo not drawn) [Alfuzosin]
Kd [1, 11]: 0.0219 µM | Kd [3, 8]: 0.0275 µM

SMILES: O=C1CCc2ccc(OCCCCN3CCN(c4cccc(Cl)c4Cl)CC3)cc2N1 [Aripiprazole]
Kd [1, 11]: 0.708 µM

SMILES: COc1ccccc1N1CCN(CCN2C(=O)CC3(CCCC3)CC2=O)CC1 [BMY7378]
% site 1 α1D [1, 4]: 57.7 ± 2.6% site 1 | % site 1 α1D [1, 6]: -8.60 ± 0.13 -5.93 ± 0.37 57.7 ± 2.6% site 1 | Kd [3, 8]: 0.589 µM

SMILES: CC(C)C[C@H]1C(=O)N2CCC[C@H]2[C@]2(O)O[C@](NC(=O)[C@@H]3C=C4c5cccc6[nH]c(Br)c(c56)C[C@H]4N(C)C3)(C(C)C)C(=O)N12 [Bromocriptine]
Kd [1]: 0.049 µM | Kd [3, 8]: 0.011 µM

SMILES: CNCCCN1c2ccccc2CCc2ccccc21 [Desipramine]
Kd [1, 11]: 3.47 µM | Kd [3, 8]: 2.69 µM

SMILES: O=c1[nH]c2ccccc2n1CCCN1CCC(n2c(=O)[nH]c3cc(Cl)ccc32)CC1 [Domperidone]
Kd [1, 11]: 1.05 µM | Kd [3, 8]: 3.16 µM

SMILES: CNCC[C@H](Oc1cccc2ccccc12)c1cccs1 [Duloxetine]
Kd [1]: 2.63 µM | Kd ([3]; read-out: Log KD α1B (apparent) (converted)): 19.5 µM
